Measured values from patent publication US20250090615A1, “MULTIVITAMIN FOR AUXILIARY REGULATION OF BLOOD PRESSURE AND PREPARATION METHOD AND APPLICATION THEREOF” (Changde Jizhi Biological Technology Co., Ltd, priority 2023, published 2025).

System: spontaneously hypertensive rats
Assay: Effects on spontaneously hypertensive rats (noninvasive tail artery systolic blood pressure)
Assay type: in vivo, rat
Conditions: 2-month-old spontaneously hypertensive rats; intragastric once a day for 6 weeks; amlodipine besylate tablets 0.05 mg/kg, multivitamin 600 mg/kg; measured 3 hours after last administration; mean ± spread, n=10
Description: Experimental animals are 2-month-old spontaneously hypertensive rats.
Experimental methods are as follows. Spontaneous hypertensive rats are taken and randomly divided into a model group and respective experimental groups. Specifically, in experimental group 1, amlodipine besylate tablets are given by intragastric administration at a dose of 0.05 milligrams per kilogram (mg/kg) once a day for 6 weeks. In experimental groups 2-9, amlodipine besylate tablets are given by intragastric administration at a dose of 0.05 mg/kg, and the products of the embodiments or comparative embodiments are given by intragastric administration at a dose of 600 mg/kg once a day for 6 weeks. The model group is given the same volume of distilled water once a day for 6 weeks. At 3 hours after the last administration, systolic blood pressure data are obtained on the computer through the software of noninvasive tail artery blood pressure measuring instrument. Blood pressure of each rat is measured 6-10 times each time, and the mean value is taken as the measured systolic blood pressure of the rat.

Compound: CCOC(=O)C1=C(COCCN)NC(C)=C(C(=O)OC)C1c1ccccc1Cl (stereo not shown) [Experimental group 1, amlodipine besylate]
- 6 weeks 3 h systolic blood pressure: 160.29 ± 2.46
